≈ marks a conversion by molar mass, not a printed value. Entries after “also recorded” stand apart in the source; their conditions may differ.
Columns and labels:
[1] = test system: ATCC6258 Candida krusei strain; assay: Anti-Candida in vitro assay, ATCC6258; assay type: cell-based; conditions: Pichia kudriavzevii; Candida krusei ATCC6258, mean of triplicate; read-out: MIC (IC80) ATCC6258
Outline: (§1)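 Alamar Blue fluorescence, ex 550 nm/em 590 nm, read after 4 h dye incubation, gives viability. Cells (10^3 cells/mL final) grown with compound dilutions in MOPS-buffered (0.165 M) RPMI 1640 plus 2% glucose, 24 h, 37 °C. MIC reported as mean of triplicates.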

C. albicans CA98001 = assay: Anti-Candida in vitro assay (Alamar Blue), C. albicans CA98001; assay type: cell-based; conditions: for MIC: Candida albicans, CA98001, 24 h, MIC = IC80, 24 h at 37 °C, mean of triplicate; for Times more active than FLC against C. albicans CA98001: ratio of MIC values versus FLC
Outline: as §1

[2] = test system: CA98002 (Candida albicans); assay: Anti-Candida in vitro assay, CA98002; assay type: cell-based; conditions: Candida albicans CA98002, mean of triplicate; read-out: MIC (IC80) CA98002
Outline: as §1

[3] = test system: ATCC2091 Candida albicans strain; assay: Anti-Candida in vitro assay, ATCC2091; assay type: cell-based; conditions: Candida albicans ATCC2091, mean of triplicate; read-out: MIC (IC80) ATCC2091
Outline: as §1

[4] = molecular target: T1, aldosterone synthase (CYP11B2) (Homo sapiens, UniProt P19099); assay: In vitro inhibition of CYP11B2 (Schizosaccharomyces pombe MB164); assay type: cell-based; conditions: inhibitor 100 nM to 5 µM, three to four independent experiments
T1 construct: expressed in transfected cells; host or cells: Schizosaccharomyces pombe strain MB164
T1 sequence (P19099 25-503): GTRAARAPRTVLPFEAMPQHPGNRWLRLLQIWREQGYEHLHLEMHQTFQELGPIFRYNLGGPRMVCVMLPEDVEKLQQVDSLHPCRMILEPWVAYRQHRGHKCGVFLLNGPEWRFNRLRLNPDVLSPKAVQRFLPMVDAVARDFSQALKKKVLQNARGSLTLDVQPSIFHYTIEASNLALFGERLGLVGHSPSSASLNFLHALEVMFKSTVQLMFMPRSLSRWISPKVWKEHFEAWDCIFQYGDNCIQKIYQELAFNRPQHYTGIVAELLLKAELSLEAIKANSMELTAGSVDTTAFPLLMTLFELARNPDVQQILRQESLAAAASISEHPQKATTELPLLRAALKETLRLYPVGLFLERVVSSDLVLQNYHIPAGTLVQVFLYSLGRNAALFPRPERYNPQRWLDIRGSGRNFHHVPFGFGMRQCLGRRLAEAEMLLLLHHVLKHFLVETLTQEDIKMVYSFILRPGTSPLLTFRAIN
Protocol: For the CYP11B1 assay, 11-deoxycortisol (RSS) was used as substrate, whereas 11-deoxycorticosterone (DOC) was used for the CYP11B2 assay. These non-radioactive steroids were purchased from Sima (Deisenhofen, Germany). Radioactive steroids were obtained from Amersham Pharmacia Biotech (Freiburg, Germany). Two Schizosaccharomyces pombe strains were used, SZ1 expressing CYP11B1 and MB164 expressing CYP11B2. The assays were performed as described previously by Bureik et al.. Exponentially growing fission yeast cells were cultivated by shaking and with good aeration at 30 °C in 500 µL Edinburgh Minimal Medium Glutamate (EMMG) containing supplements as required. Inhibitors were dissolved in ethanol at different concentrations, and equal volumes of ethanolic solutions were used in all cases (including controls). Final concentrations of inhibitors ranged from 100 nM to 5 µM. Cells were preincubated with the respective inhibitor solutions for 15 min prior to the addition of steroid substrates (100 nM DOC or 100 nM RSS, respectively). For detection of steroids, 1% of the total substrate amount was radioactively labeled as [^3H]RSS, [^3H]DOC, or [^14C]DOC. After 4 h (MB164) or 24 h (SZ1) cultures were extracted with chloroform and dried under vacuum. The residues were dissolved in 10 µL chloroform and spotted onto glass-backed silica-coated HPTLC plates (Kieselgel 60 F254, Merck; Darmstadt, Germany). In addition, small amounts of non-radioactive steroids were spotted as references. The HPTLC was developed twice in chloroform/methanol/water (300:20:1, v/v/v) and steroids identified after exposure to Fuji imaging plates and quantitated on a phosphoimager (BAS-2500, Fuji; Stamford, CT, USA).

aromatase (CYP19) = molecular target: T2, aromatase (CYP19) (Homo sapiens, UniProt P11511); assay: In vitro inhibition of aromatase; assay type: biochemical; conditions: at 36 µM
T2 construct: Microsomal protein (0.1 mg) was added to start the reaction; from tissue; host or cells: microsomes; ('human placental microsomes')
T2 sequence (P11511 1-503): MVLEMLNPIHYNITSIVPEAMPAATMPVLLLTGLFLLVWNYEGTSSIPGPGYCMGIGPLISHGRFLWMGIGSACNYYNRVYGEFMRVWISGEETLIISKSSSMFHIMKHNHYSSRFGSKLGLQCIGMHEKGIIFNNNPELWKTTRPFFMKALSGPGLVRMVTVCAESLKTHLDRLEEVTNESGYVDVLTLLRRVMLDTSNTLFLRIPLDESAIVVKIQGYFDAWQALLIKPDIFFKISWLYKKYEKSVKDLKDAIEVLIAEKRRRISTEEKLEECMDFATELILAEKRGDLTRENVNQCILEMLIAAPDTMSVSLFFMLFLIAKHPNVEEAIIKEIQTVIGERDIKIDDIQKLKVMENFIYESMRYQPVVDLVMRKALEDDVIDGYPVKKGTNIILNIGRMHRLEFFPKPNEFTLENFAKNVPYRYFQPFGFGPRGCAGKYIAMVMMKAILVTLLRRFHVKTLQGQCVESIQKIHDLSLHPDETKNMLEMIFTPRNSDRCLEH
Protocol: The assay was performed according to previously described methods [49, 50, 51] by monitoring the enzyme activity by measuring the ^3H2O formed from [1β-^3H]androstenedione during aromatization. […] Microsomal protein (0.1 mg) was added to start the reaction. After incubation of 15 min at 30 °C, the reaction was stopped by adding 200 µL of a cold HgCl2 solution (1 mM). After the addition of 200 µL of an aqueous dextran-coated charcoal (DCC) suspension (2%), the vials were shaken then centrifuged to separate the charcoal-absorbed steroids. Aliquots of the supernatant were assayed for ^3H2O by counting in a scintillation mixture using a LKB-Wallac β-counter.

[5] = test system: CL98001 (Candida lusitaniae); assay: Anti-Candida in vitro assay, CL98001; assay type: cell-based; conditions: Clavispora lusitaniae; Candida lusitaniae CL98001, mean of triplicate; read-out: MIC (IC80) CL98001
Outline: as §1

CK98002 (Candida krusei) = assay: Anti-Candida in vitro assay, CK98002; assay type: cell-based; conditions: Pichia kudriavzevii; Candida krusei CK98002, mean of triplicate; read-out: MIC (IC80) CK98002
Outline: as §1

[6] = test system: CA98005 (Candida albicans); assay: Anti-Candida in vitro assay, CA98005; assay type: cell-based; conditions: Candida albicans CA98005, mean of triplicate; read-out: MIC (IC80) CA98005
Outline: as §1

Row | SMILES | MIC [1] | MIC (C. albicans CA98001) | Times more active than FLC against C. albicans CA98001 (C. albicans CA98001) | MIC [2] | MIC [3] | CYP11B2 inhibition effect [4] | inhibition at 36 µM (aromatase (CYP19)) | MIC [5] | MIC (CK98002 (Candida krusei)) | MIC [6]
1 | OC(Cn1cncn1)(Cn1ccc2ccccc21)c1ccc(Cl)cc1Cl (centres unmarked) [Compound 8g, 2-(2,4-Dichlorophenyl)-3-(1H-indol-1-yl)-1-(1H-1,2,4-triazol-1-yl)-propan-2-ol] | 0.08 mg/L (≈ 0.207 µM) | 0.000259 mg/L (≈ 0.000669 µM) | ≈ 80 | < 0.004 mg/L | < 0.004 mg/L | slight inhibitory effect; also recorded: slight inhibition | 27% | < 0.004 mg/L | 2.79 mg/L (≈ 7.2 µM) | < 0.004 mg/L
2 | O[C@@](Cn1cncn1)(Cn1ccc2ccccc21)c1ccc(Cl)cc1Cl [(+)-(R)-8g] | 24.4 mg/L (≈ 63 µM) | 0.023 mg/L (≈ 0.0594 µM) |  | 2.75 mg/L (≈ 7.1 µM) | 1.01 mg/L (≈ 2.6 µM) | slight inhibitory effect; also recorded: slight inhibition | 51% | 9.68 mg/L (≈ 25 µM) | 22.1 mg/L (≈ 57 µM) | 2.71 mg/L (≈ 6.99 µM)
3 | O[C@](Cn1cncn1)(Cn1ccc2ccccc21)c1ccc(Cl)cc1Cl [(−)-(S)-8g] | 0.167 mg/L (≈ 0.431 µM) | 0.000256 mg/L (≈ 0.000661 µM) | ≈ 80 | < 0.039 mg/L | < 0.039 mg/L | no inhibition | 72% | 0.024 mg/L (≈ 0.062 µM) | 0.022 mg/L (≈ 0.0568 µM) | 0.026 mg/L (≈ 0.0671 µM)

Reference: publication PMC7464559, “Synthesis, Optimization, Antifungal Activity, Selectivity, and CYP51 Binding of New 2-Aryl-3-azolyl-1-indolyl-propan-2-ols” (Pharmaceuticals, 2020)
